We go through 9 molecules from PubChem BioAssay (NCI).

Structures are written as SMILES.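 Interpolation was linear, between the two tested concentrations surrounding the appropriate level; five concentrations were tested over 48 hours in 96-well plates. TGI: total growth inhibition.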

Among the test systems are A549 NSCLC; CAKI-1 renal; MCF7 breast; PC-3 prostate; RPMI-8226 leukemia; SK-MEL-28 melanoma; SNB-19 CNS; SR leukemia; SW-620 colon; TK-10 renal; UACC-257 melanoma; UACC-62 melanoma; RXF 393 renal.
What all share (assay): DTP human tumour cell line panel, 48 h

For the molecule `CC1CCCOc2ccc(cc2)C=Nc2ccc(cc2)CCc2ccc(cc2)N=Cc2ccc(cc2)OCCC1` (stereo unspecified), the TGI in the test with A549 NSCLC, in the test on CAKI-1 renal, in the test with MCF7 breast, in the test with PC-3 prostate, in the test with RPMI-8226 leukemia and in the test on SK-MEL-28 melanoma was greater than 100 µM throughout. Also, the TGI with SNB-19 CNS, with SR leukemia, with SW-620 colon, in the test with TK-10 renal, in the test with UACC-257 melanoma and in the test on UACC-62 melanoma was greater than 100 µM in each case.

Turning to `CCOC(=O)C(NNS(=O)(=O)c1ccc(C)cc1)S(=O)(=O)C(F)(F)C(F)(F)C(F)(F)C(F)(F)F` (stereo unspecified), the total growth inhibition concentration (TGI) in the test with A549 NSCLC, with CAKI-1 renal, in the test on MCF7 breast, with PC-3 prostate, in the test with RPMI-8226 leukemia and in the test with SK-MEL-28 melanoma was greater than 100 µM each time. Besides, the total growth inhibition concentration (TGI) in the test on SNB-19 CNS, in the test with SR leukemia, in the test on SW-620 colon, with TK-10 renal, in the test on UACC-257 melanoma and in the test on UACC-62 melanoma was greater than 100 µM in each case.

On to `COC(=O)c1cc(NC2OCC(OC(C)=O)C(OC(C)=O)C2OC(C)=O)nc(SC)c1C(=O)OC` (stereo unspecified), for which the TGI in the test with A549 NSCLC, in the test on CAKI-1 renal, in the test on MCF7 breast, in the test with PC-3 prostate, in the test with RPMI-8226 leukemia and with SK-MEL-28 melanoma was greater than 100 µM throughout. Moreover, the TGI in the test on SNB-19 CNS, with SR leukemia, in the test on SW-620 colon, with TK-10 renal, with UACC-257 melanoma and in the test on UACC-62 melanoma was greater than 100 µM throughout.

Take `CN(C(=O)OC(C)(C)C)[C@H]1CCCC[C@H]1N1CCCC1`: the TGI with A549 NSCLC, with CAKI-1 renal, in the test on MCF7 breast, in the test with PC-3 prostate, in the test with RPMI-8226 leukemia and in the test on SK-MEL-28 melanoma was greater than 100 µM each time. Besides, the TGI in the test on SNB-19 CNS, with SR leukemia, in the test with SW-620 colon, in the test with TK-10 renal, with UACC-257 melanoma and in the test on UACC-62 melanoma was greater than 100 µM throughout.

As to `CC(C)=CCNc1ncnc2c1ncn2CCC(=O)OC(C)(C)C`, the TGI in the test on A549 NSCLC, with MCF7 breast, with PC-3 prostate, in the test with RPMI-8226 leukemia, with RXF 393 renal and in the test on SK-MEL-28 melanoma was greater than 100 µM in each case. Moreover, the TGI in the test with SNB-19 CNS, with SR leukemia, with SW-620 colon, with TK-10 renal and in the test on UACC-62 melanoma was greater than 100 µM each time.

As for `COc1cc(-c2c[nH]c3ccccc23)nc(-c2c[nH]c3ccccc23)n1`, the TGI in the test on A549 NSCLC was found to be 12.5 µM; in the test on CAKI-1 renal, 20.7 µM; in the test on MCF7 breast, 14.9 µM; in the test with PC-3 prostate, 9.06 µM; with RPMI-8226 leukemia, 10.6 µM; in the test with SNB-19 CNS it was 21 µM. The TGI stood at 22.1 µM with SR leukemia; 20.3 µM in the test with SW-620 colon; 20.6 µM with TK-10 renal; 20.9 µM in the test on UACC-257 melanoma; 18.6 µM in the test on UACC-62 melanoma.

For `COC(=O)CCc1ccc2c(c1)CCC2`, the concentration for total growth inhibition (TGI) in the test on A549 NSCLC, with CAKI-1 renal, in the test with MCF7 breast, in the test on PC-3 prostate, with RPMI-8226 leukemia and in the test on SK-MEL-28 melanoma was greater than 100 µM each time. Also, the concentration for total growth inhibition (TGI) with SNB-19 CNS, in the test on SR leukemia, in the test on SW-620 colon, with TK-10 renal, in the test on UACC-257 melanoma and in the test with UACC-62 melanoma was greater than 100 µM each time.

As to `O=C(CCl)N1CCCCC1C1(c2cc3ccccc3[nH]2)OCCO1` (stereo unspecified), the TGI was found to be 23.3 µM in the test on A549 NSCLC; 1.86 µM in the test on CAKI-1 renal; 8.97 µM in the test with MCF7 breast; 8.83 µM in the test on PC-3 prostate; 13.7 µM in the test with RPMI-8226 leukemia; 12.8 µM in the test with RXF 393 renal. For the same molecule, the total growth inhibition concentration (TGI) in the test with SK-MEL-28 melanoma amounted to 35.6 µM; in the test on SNB-19 CNS, 31.5 µM; in the test on SW-620 colon, 58.9 µM; in the test with TK-10 renal, 10.1 µM; in the test with UACC-257 melanoma it was 13.1 µM; in the test on UACC-62 melanoma it was 7.87 µM.

As for `CC(C)[Si](OC12CCC(CC1O)CC2C(=O)O)(C(C)C)C(C)C` (stereo unspecified), the concentration for total growth inhibition (TGI) turned out to be 28.3 µM with A549 NSCLC; 36.4 µM in the test with CAKI-1 renal; 31.7 µM in the test on MCF7 breast; 25 µM in the test with PC-3 prostate; 58.3 µM with RPMI-8226 leukemia; 24.2 µM in the test on SK-MEL-28 melanoma. Besides, the TGI with SNB-19 CNS was 29.1 µM; in the test on SR leukemia it was greater than 100 µM; in the test with SW-620 colon, 41.9 µM; in the test on TK-10 renal, 17.1 µM; in the test on UACC-257 melanoma it was 36.5 µM; with UACC-62 melanoma, 27.6 µM.

A word on the TGI: it is the concentration at which net growth stops. Low readings indicate more potent growth arrest, high ones less potent growth arrest.
